From patent publication US8916579B2, “5-fluoropyrimidinone derivatives” (Dow AgroSciences, LLC., priority 2009, dated 2014)
Where two headings read alike, the source gives them in different places.

What was measured:
[1] = system: Mycosphaerella graminicola; anamorph: Septoria tritici; Bayer code SEPTTR; test: Fungicidal activity: leaf blotch of wheat, greenhouse wheat plants (variety Yuma), percent disease control; type: in vivo; details: Zymoseptoria tritici
[2] = 24 h, One-Day Protectant (1DP), 100 ppm, wheat plants, read-out: SEPTTR 100 PPM 1DP (% Disease Control rating)
[3] = 72 h, Three-Day Curative (3DC), 100 ppm, wheat plants, read-out: SEPTTR 100 PPM 3DC (% Disease Control rating)

Row | Structure (SMILES) | melting point [°C] | pest or weed control at 100 ppm [1, 2] [%] | pest or weed control at 100 ppm [1, 3] [%] | pest or weed control at 100 ppm ([1]; 24 h, read-out: SEPTTR 100 PPM 1DP (% Disease Control rating)) [%] | pest or weed control at 100 ppm ([1]; 72 h, read-out: SEPTTR 100 PPM 3DC (% Disease Control rating)) [%]
1 | CN(C)/C=N/c1nc(=O)n(-c2ccsc2)cc1F [Compound 56, (E)-N′-(5-fluoro-2-oxo-1-(thiophen-3-yl)-1,2-dihydropyrimidin-4-yl)-N,N-dimethylformimidamide] | 211 to 213 | 26 to 50 | 51 to 75 | – | –
2 | Nc1nc(=O)n(CCCCI)cc1F [Compound 26, 4-amino-5-fluoro-1-(4-iodobutyl)-1H-pyrimidin-2-one] | 181 to 184 | – | – | 0 to 25 | 26 to 50
3 | COc1ccc(-n2cc(F)c(N)nc2=O)cc1OC [Compound 40] | 244.8 to 245.6 | 0 to 25 | 0 to 25 | – | –
4 | Nc1nc(=O)n(COCc2ccccc2)cc1F [Compound 14, 4-amino-1-(benzyloxymethyl)-5-fluoropyrimidin-2(1H)-one] | 213 to 217 | 0 to 25 | 0 to 25 | – | –

Now from value to compound, other results behind:

Row | melting point [°C] | Structure (SMILES) | pest or weed control at 100 ppm [1, 2] [%] | pest or weed control at 100 ppm [1, 3] [%] | pest or weed control at 100 ppm ([1]; 24 h, read-out: SEPTTR 100 PPM 1DP (% Disease Control rating)) [%] | pest or weed control at 100 ppm ([1]; 72 h, read-out: SEPTTR 100 PPM 3DC (% Disease Control rating)) [%]
5 | 197 to 199 | O=C(Nc1ccccc1Cl)Nc1nc(=O)n(CC2CC2)cc1F [Compound 85, 1-(2-chlorophenyl)-3-(1-(cyclopropylmethyl)-5-fluoro-2-oxo-1,2-dihydropyrimidin-4-yl)urea] | 0 to 25 | 0 to 25 | – | –
6 | 179.2 to 181.1 | Nc1nc(=O)n(CC2CCCO2)cc1F (stereo not drawn) [Compound 76] | 0 to 25 | 51 to 75 | – | –
